Test results as given in the supplement of paper PMC10307832.

Assays:
Assay in all cases: relative viability (nuclei count vs DMSO), 5 days (fraction); higher = more cells survive
Selisistat + Alpelisib = compound: C1CC(C2=C(C1)C3=C(N2)C=CC(=C3)Cl)C(=O)N [Selisistat] + Cc1nc(NC(=O)N2CCC[C@H]2C(N)=O)sc1-c1ccnc(C(C)(C)C(F)(F)F)c1 [Alpelisib] (partner 2 µM)
In short: (§1)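 Lung cancer cell lines were pin-tool dosed in 1536-well plates on the day after seeding, with either a lone drug or a fixed anchor-drug dose plus five library-drug doses (not always all listed) in √10 steps. Nuclei were counted on 4× images after 5 days. Relative viability is the ratio of treated-well to vehicle-well nuclei counts, with each value a median of duplicate plates.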

Selisistat + Dasatinib = compound: C1CC(C2=C(C1)C3=C(N2)C=CC(=C3)Cl)C(=O)N [Selisistat] + Cc1nc(Nc2ncc(C(=O)Nc3c(C)cccc3Cl)s2)cc(N2CCN(CCO)CC2)n1 [Dasatinib] (partner 0.075 µM)
In short: as §1

Serdemetan + Foretinib = compound: c1ccc2c(CCNc3ccc(Nc4ccncc4)cc3)c[nH]c2c1 [Serdemetan] + COc1cc2c(Oc3ccc(NC(=O)C4(C(=O)Nc5ccc(F)cc5)CC4)cc3F)ccnc2cc1OCCCN1CCOCC1 [Foretinib] (partner 0.25 µM)
In short: as §1

Serdemetan + Crizotinib = compound: c1ccc2c(CCNc3ccc(Nc4ccncc4)cc3)c[nH]c2c1 [Serdemetan] + C[C@@H](Oc1cc(-c2cnn(C3CCNCC3)c2)cnc1N)c1c(Cl)ccc(F)c1Cl [Crizotinib] (partner 1 µM)
In short: as §1

Cell Line | relative viability (Selisistat + Alpelisib; first compound 0.4 µM) | relative viability (Selisistat + Alpelisib; first compound 1.265 µM) | relative viability (Selisistat + Alpelisib; first compound 4 µM) | relative viability (Selisistat + Alpelisib; first compound 12.65 µM) | relative viability (Selisistat + Alpelisib; first compound 40 µM) | relative viability (Selisistat + Dasatinib; first compound 0.4 µM) | relative viability (Selisistat + Dasatinib; first compound 1.265 µM) | relative viability (Selisistat + Dasatinib; first compound 4 µM) | relative viability (Selisistat + Dasatinib; first compound 12.65 µM) | relative viability (Selisistat + Dasatinib; first compound 40 µM) | relative viability (Serdemetan + Foretinib; first compound 0.04 µM) | relative viability (Serdemetan + Foretinib; first compound 0.1265 µM) | relative viability (Serdemetan + Foretinib; first compound 0.4 µM) | relative viability (Serdemetan + Foretinib; first compound 1.265 µM) | relative viability (Serdemetan + Foretinib; first compound 4 µM) | relative viability (Serdemetan + Crizotinib; first compound 0.04 µM) | relative viability (Serdemetan + Crizotinib; first compound 0.1265 µM) | relative viability (Serdemetan + Crizotinib; first compound 0.4 µM) | relative viability (Serdemetan + Crizotinib; first compound 1.265 µM) | relative viability (Serdemetan + Crizotinib; first compound 4 µM)
NCI-H2009 | 1.22 | 1.1 | 1.25 | 0.835 | 1.12 | 0.323 | 0.267 | 0.208 | 0.239 | 0.241 | 1.18 | 1.14 | 1.16 | 1.14 | 0.887 | 1 | 0.966 | 0.912 | 0.803 | 0.956
NCI-H2023 | 0.594 | 0.52 | 0.608 | 0.59 | 0.592 | 0.495 | 0.497 | 0.524 | 0.539 | 0.512 | 0.804 | 0.795 | 0.689 | 0.653 | 0.267 | 0.688 | 0.644 | 0.452 | 0.286 | 0.237
NCI-H2085 | 1.04 | 0.983 | 0.968 | 1.06 | 0.919 | 0.262 | 0.219 | 0.204 | 0.27 | 0.257 | 1 | 0.899 | 1 | 0.936 | 0.533 | 0.688 | 0.817 | 0.733 | 0.627 | 0.561
